Laboratory results: ChEMBL document CHEMBL1152034, “Solid phase synthesis of phosphinic acid endothelin converting enzyme inhibitors” (Bioorg Med Chem Lett, 1996)

What was measured:
[1] = biological target: T1, Endothelin-converting enzyme 1 (Homo sapiens, UniProt P42892); assay: Inhibition of endothelin-converting enzyme in human umbilical vein endothelial cells; assay type: cell-based, Endothelial cell
T1 sequence (P42892 whole entry): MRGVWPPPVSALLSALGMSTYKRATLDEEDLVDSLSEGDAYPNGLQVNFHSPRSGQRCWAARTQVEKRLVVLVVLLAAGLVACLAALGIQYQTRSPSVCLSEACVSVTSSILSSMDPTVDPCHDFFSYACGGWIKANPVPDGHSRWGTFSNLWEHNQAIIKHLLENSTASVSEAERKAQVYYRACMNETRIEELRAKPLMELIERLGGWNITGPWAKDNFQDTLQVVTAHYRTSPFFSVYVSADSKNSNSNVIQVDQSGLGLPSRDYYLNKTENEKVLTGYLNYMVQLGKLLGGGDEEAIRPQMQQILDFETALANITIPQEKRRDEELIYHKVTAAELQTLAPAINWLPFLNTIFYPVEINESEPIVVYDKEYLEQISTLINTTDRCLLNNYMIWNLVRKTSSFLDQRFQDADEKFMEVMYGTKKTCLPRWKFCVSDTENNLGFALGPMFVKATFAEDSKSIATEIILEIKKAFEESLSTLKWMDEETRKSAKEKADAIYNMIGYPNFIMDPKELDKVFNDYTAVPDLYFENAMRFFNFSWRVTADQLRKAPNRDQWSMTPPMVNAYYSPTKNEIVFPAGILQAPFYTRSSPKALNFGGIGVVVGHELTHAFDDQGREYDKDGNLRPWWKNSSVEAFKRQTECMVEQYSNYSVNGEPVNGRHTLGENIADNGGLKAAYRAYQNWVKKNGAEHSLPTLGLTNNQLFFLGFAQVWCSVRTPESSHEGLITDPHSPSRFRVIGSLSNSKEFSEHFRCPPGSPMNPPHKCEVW

Neprilysin = Neprilysin (Homo sapiens, UniProt P08473); assay: Inhibition of neutral endopeptidase in human umbilical vein endothelial cells; assay type: cell-based, Endothelial cell
Neprilysin, sequence (P08473 whole entry): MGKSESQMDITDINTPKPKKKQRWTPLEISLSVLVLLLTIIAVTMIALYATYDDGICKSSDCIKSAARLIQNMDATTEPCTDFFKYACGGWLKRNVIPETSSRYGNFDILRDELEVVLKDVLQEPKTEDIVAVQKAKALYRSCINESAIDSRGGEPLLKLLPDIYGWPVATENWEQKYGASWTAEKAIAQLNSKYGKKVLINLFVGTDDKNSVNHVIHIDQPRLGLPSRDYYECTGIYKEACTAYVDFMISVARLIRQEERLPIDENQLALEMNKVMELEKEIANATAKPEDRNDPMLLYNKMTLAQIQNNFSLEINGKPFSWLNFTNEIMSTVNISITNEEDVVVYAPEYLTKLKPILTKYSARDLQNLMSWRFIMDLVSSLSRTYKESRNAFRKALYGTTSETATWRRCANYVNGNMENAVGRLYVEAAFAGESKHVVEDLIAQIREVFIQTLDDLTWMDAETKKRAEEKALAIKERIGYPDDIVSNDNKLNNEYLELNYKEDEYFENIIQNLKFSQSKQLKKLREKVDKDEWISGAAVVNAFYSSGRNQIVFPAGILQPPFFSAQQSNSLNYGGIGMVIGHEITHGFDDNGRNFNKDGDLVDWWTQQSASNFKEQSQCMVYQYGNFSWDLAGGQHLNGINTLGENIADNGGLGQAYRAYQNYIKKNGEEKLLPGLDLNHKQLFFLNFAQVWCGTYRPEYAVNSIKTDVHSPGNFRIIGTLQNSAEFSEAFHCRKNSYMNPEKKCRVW

IC50 [1] | IC50 (Neprilysin) | IC50 ([1]; endothelial cell) | IC50 (Neprilysin; endothelial cell) | SMILES
> 100 µM | > 60 µM |  |  | O=C(N[C@@H](Cc1ccccc1)P(=O)(O)CC(Cc1ccccc1)C(=O)N[C@H](Cc1ccccc1)C(=O)O)OCc1ccccc1 (stereo partly drawn)
80 µM | 0.9 µM |  |  | O=C(O)CNC(=O)C(Cc1ccccc1)CP(=O)(O)[C@H](Cc1ccccc1)NC(=O)OCc1ccccc1 (stereo partly drawn)
0.4 µM |  |  |  | O=C(O)[C@H](Cc1c[nH]c2ccccc12)NC(=O)[C@H](Cc1ccccc1)NP(=O)(O)CCCCc1ccccc1
20 µM |  |  |  | CC(C)[C@H](NC(=O)C(Cc1ccccc1)CP(=O)(O)[C@H](Cc1ccccc1)NC(=O)OCc1ccccc1)C(N)=O (stereo partly drawn)
4.3 µM | 0.8 µM |  |  | N=C(N)NCCCC(NC(=O)C(Cc1ccccc1)CP(=O)(O)[C@H](Cc1ccccc1)NC(=O)OCc1ccccc1)C(=O)O (mixture of isomers)
4 µM |  |  |  | CCC(C)C(NC(=O)C(Cc1ccccc1)CP(=O)(O)[C@H](Cc1ccccc1)NC(=O)OCc1ccccc1)C(=O)O (mixture of isomers)
60 µM |  |  |  | CC(C)[C@@H](NC(=O)C(Cc1ccccc1)CP(=O)(O)[C@H](Cc1ccccc1)NC(=O)OCc1ccccc1)C(=O)O (mixture of isomers)
25 µM |  |  |  | O=C(O)CCC(NC(=O)C(Cc1ccccc1)CP(=O)(O)[C@H](Cc1ccccc1)NC(=O)OCc1ccccc1)C(=O)O (mixture of isomers)
50 µM | 2.3 µM |  |  | O=C(O)CCNC(=O)C(Cc1ccccc1)CP(=O)(O)[C@H](Cc1ccccc1)NC(=O)OCc1ccccc1 (mixture of isomers)
20 µM | 10 µM |  |  | O=C(N[C@@H](Cc1ccccc1)P(=O)(O)CC(Cc1ccccc1)C(=O)NC(Cc1c[nH]cn1)C(=O)O)OCc1ccccc1 (mixture of isomers)
30 µM |  |  |  | O=C(O)CC(NC(=O)C(Cc1ccccc1)CP(=O)(O)[C@H](Cc1ccccc1)NC(=O)OCc1ccccc1)C(=O)O (mixture of isomers)
30 µM | > 100 µM |  |  | NCCCCC(NC(=O)C(Cc1ccccc1)CP(=O)(O)[C@H](Cc1ccccc1)NC(=O)OCc1ccccc1)C(=O)O (mixture of isomers)
8 µM | 0.3 µM |  |  | CC(NC(=O)C(Cc1ccccc1)CP(=O)(O)[C@H](Cc1ccccc1)NC(=O)OCc1ccccc1)C(=O)O (mixture of isomers)
1.7 µM |  |  |  | CC(C)C(NC(=O)C(Cc1ccccc1)CP(=O)(O)[C@H](Cc1ccccc1)NC(=O)OCc1ccccc1)C(=O)O (mixture of isomers)
20 µM | 10 µM |  |  | NC(=O)CC(NC(=O)C(Cc1ccccc1)CP(=O)(O)[C@H](Cc1ccccc1)NC(=O)OCc1ccccc1)C(=O)O (mixture of isomers)
6 µM | 15 µM |  |  | NC(=O)CCC(NC(=O)C(Cc1ccccc1)CP(=O)(O)[C@H](Cc1ccccc1)NC(=O)OCc1ccccc1)C(=O)O (mixture of isomers)
12 µM | 2.3 µM |  |  | O=C(N[C@@H](Cc1ccccc1)P(=O)(O)CC(Cc1ccccc1)C(=O)NC(Cc1ccc(O)cc1)C(=O)O)OCc1ccccc1 (mixture of isomers)

IC50 [1] | IC50 (Neprilysin) | IC50 ([1]; endothelial cell) | IC50 (Neprilysin; endothelial cell) | SMILES
10 µM | 0.8 µM |  |  | O=C(N[C@@H](Cc1ccccc1)P(=O)(O)CC(Cc1ccccc1)C(=O)NC(Cc1ccccc1)C(=O)O)OCc1ccccc1 (mixture of isomers)
1.1 µM | 1.4 µM |  |  | O=C(N[C@@H](Cc1ccccc1)P(=O)(O)CC(Cc1ccccc1)C(=O)NC(Cc1c[nH]c2ccccc12)C(=O)O)OCc1ccccc1 (mixture of isomers)
> 100 µM |  |  |  | O=C(O)CC[C@@H](NC(=O)C(Cc1ccccc1)CP(=O)(O)[C@H](Cc1ccccc1)NC(=O)OCc1ccccc1)C(=O)O (mixture of isomers)
> 100 µM | > 60 µM |  |  | N=C(N)NCCC[C@@H](NC(=O)C(Cc1ccccc1)CP(=O)(O)[C@H](Cc1ccccc1)NC(=O)OCc1ccccc1)C(=O)O (mixture of isomers)
12 µM |  |  |  | CCCCC(NC(=O)C(Cc1ccccc1)CP(=O)(O)[C@H](Cc1ccccc1)NC(=O)OCc1ccccc1)C(=O)O (mixture of isomers)
5 µM | 10 µM |  |  | CC(O)C(NC(=O)C(Cc1ccccc1)CP(=O)(O)[C@H](Cc1ccccc1)NC(=O)OCc1ccccc1)C(=O)O (mixture of isomers)
23 µM |  |  |  | CC(C)CC(NC(=O)C(Cc1ccccc1)CP(=O)(O)[C@H](Cc1ccccc1)NC(=O)OCc1ccccc1)C(=O)O (mixture of isomers; form 1)
20 µM |  |  |  | CC(C)CC(NC(=O)C(Cc1ccccc1)CP(=O)(O)[C@H](Cc1ccccc1)NC(=O)OCc1ccccc1)C(=O)O (mixture of isomers; form 2)
 | 50 µM | > 100 µM |  | C[C@H](O)[C@@H](NC(=O)C(Cc1ccccc1)CP(=O)(O)[C@H](Cc1ccccc1)NC(=O)OCc1ccccc1)C(=O)O (single isomer, unassigned)
7 µM | 1 µM |  |  | O=C(N[C@@H](Cc1ccccc1)P(=O)(O)CC(Cc1ccccc1)C(=O)NC(Cc1ccc(O)cc1)C(=O)O)OCc1ccccc1 (single isomer, unassigned)
> 100 µM | > 100 µM |  |  | C[C@H](O)[C@@H](NC(=O)C(Cc1ccccc1)CP(=O)(O)[C@H](Cc1ccccc1)NC(=O)OCc1ccccc1)C(=O)O (stereo in doubt)
> 100 µM |  |  |  | CC(C)[C@@H](NC(=O)C(Cc1ccccc1)CP(=O)(O)[C@H](Cc1ccccc1)NC(=O)OCc1ccccc1)C(=O)O (stereo in doubt)
60 µM |  |  | > 100 µM | NCCCCC(NC(=O)C(Cc1ccccc1)CP(=O)(O)[C@H](Cc1ccccc1)NC(=O)OCc1ccccc1)C(=O)O (stereo in doubt)
80 µM |  |  |  | CC(C)C(NC(=O)C(Cc1ccccc1)CP(=O)(O)[C@H](Cc1ccccc1)NC(=O)OCc1ccccc1)C(=O)O (stereo in doubt)
> 100 µM | > 100 µM |  |  | NC(=O)CCC(NC(=O)C(Cc1ccccc1)CP(=O)(O)[C@H](Cc1ccccc1)NC(=O)OCc1ccccc1)C(=O)O (stereo in doubt)
5.8 µM | 10 µM |  |  | O=C(N[C@@H](Cc1ccccc1)P(=O)(O)CC(Cc1ccccc1)C(=O)NC(Cc1c[nH]c2ccccc12)C(=O)O)OCc1ccccc1 (stereo in doubt)
